Values joined by “and” are separate entries in the source; they are usually repeats but may differ in a detail not shown here. Identical values can stand only once.
Experiments:
rhVEGF165-biotin = target: T1, rhVEGF165-biotin (Homo sapiens, UniProt P15692); test: VEGF-Binding ELISA (dose-response)
T1 sequence (P15692 27-191 isoform P15692-4): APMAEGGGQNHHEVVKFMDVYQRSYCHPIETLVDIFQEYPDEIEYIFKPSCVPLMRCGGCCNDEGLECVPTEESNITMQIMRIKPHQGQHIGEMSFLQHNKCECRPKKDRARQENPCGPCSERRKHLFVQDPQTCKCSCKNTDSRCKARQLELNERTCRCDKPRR
Procedure: The potency of test substances as a VEGF-neutralising moiety is measured in an ELISA format. This assay measures the solution-phase interaction between rhVEGF165-biotin and test sample. Unbound VEGF165-biotin is then immobilised on a solid-phase anti-hVEGF antibody (R&D systems MAB293). The biotin signal is detected with streptavidin-alkaline phosphatase, which gives a colorimetric signal when incubated with p-nitrophenyl phosphate. Plates are read in a spectrophotometer at 405 nm.
(§1) Any test compound that binds to VEGF165-biotin and prevents it from binding to the antibody will lower the color signal and be recognized as a “hit”. Hits were defined as compounds that show>60% inhibition.
VEGF165-biotin+assay buffer ? 0% inhibition
Soluble VEGF receptor (sflt @ 4 nM) ? 70% inhibition
(§2) The primary screening of all library compounds was done at a compound concentration of 50 μM, followed by measuring dose-response effects of “hits” between 0.05 and 500 μM for the calculation of IC50 values.
The compounds were dissolved in DMSO and it was shown that the solvent has no effect on the assay at this concentration.

[1] = tested on: human umbilical vein endothelial cells (HUVEC); test: HUVEC proliferation assay co-stimulated with rhVEGF; type: cell-based
Procedure: The HUVEC assay measures the potency of test substances to inhibit in vitro proliferation of human umbilical vein endothelial cells (HUVEC) when co-stimulated with recombinant human vascular endothelial growth factor (rhVEGF).
HUVEC are grown under defined conditions (EGM-2 medium, 37° C., 5% CO2 and 95% humidity). They are seeded into 48-well plates using EBM medium with only 1% serum and incubated for 24 h. This is to ensure that cells are not stimulated before treatment with VEGF and test compound.
Test compounds are diluted in medium to concentrations between 0.05 and 50 μM and dosed together with VEGF165 at 12 ng/ml. This VEGF concentration was determined in a VEGF-dose-response curve to be just sub-optimal for maximum cell proliferation. Cells are incubated for 48 h at above conditions and viable cell density is measured using a tetrazolium compound (MTS). Viable cells reduce MTS into a soluble formazan product, which has an absorbance maximum at 490 nm. The absorbance is directly proportional to cell density.
EBM+1% serum (no VEGF) ? Minimum or Blank
EBM+1% serum (12 ng/ml) ? Maximum

VEGF = target: T2, VEGF (Homo sapiens, UniProt P15692); test: Initial medium throughput ELISA assay for inhibition of VEGF (primary screening); type: binding; details: initial assessment, primary screening at compound concentration of 50 μM, repeats listed; for Inhibition (%): 50 µM
T2 sequence (P15692 27-191 isoform P15692-4): T1 sequence (P15692 27-191 isoform P15692-4)
Procedure: Initially the compounds were assayed for inhibition of VEGF in a medium throughput ELISA assay before detailed assessment in the HUVEC and VEGF binding assays in examples in 9 and 10. The data from this initial assessment is presented in table 5 in the column labelled “Inhibition %”.
as §1, §2

[2] = Homo sapiens, HUVEC, 48 h, Table 5, VEGF165 at 12 ng/ml, MTS, repeats listed
[3] = Table 6, first test (unmarked value)
[4] = Homo sapiens, HUVEC, Table 6, first test (unmarked value)
[5] = Table 5, VEGF165 at 12 ng/ml, 48 h, MTS, repeats listed

| IC50 (rhVEGF165-biotin; Table 5, repeats listed) | inhibition at 50 µM (VEGF) [%] | Structure (SMILES) | IC50 [1, 2] [µM] | further results |
| --- | --- | --- | --- | --- |
| 136 µM |  | COc1ccc(C(N)=O)cc1NC(=O)c1csc(C2CCN(C(=O)c3cc(OC)c4ccccc4c3)CC2)n1 [Compound 1506-01810] | 5.6 |  |
| 16.7 µM |  | COc1ccc(C(N)=O)cc1NC(=O)c1csc(C2CCN(C(=O)Cc3ccc(F)cc3)CC2)n1 [Compound 1506-01112] | 26 |  |
| 29 µM |  | COc1ccc(C(N)=O)cc1NC(=O)c1csc(C2CCN(C(=O)Cc3c[nH]c4ccccc34)CC2)n1 [Compound 1506-00935] |  |  |
| 16 µM and 15.5 µM |  | COc1ccc(C(N)=O)cc1NC(=O)c1csc(C2CCN(C(=O)c3ccc(OC(C)C)cc3)CC2)n1 [Compound 1506-04091] |  |  |
| 153 µM |  | COc1ccc(C(N)=O)cc1NC(=O)c1csc(C2CCN(C(=O)c3c(-c4ccccc4)noc3C)CC2)n1 [Compound 1506-00404] | 10.4 |  |
| 54 µM and 126 µM | 91 | COc1ccc(C(N)=O)cc1NC(=O)c1csc(C2CCN(C(=O)c3cnn(-c4ccccc4)c3)CC2)n1 [Compound 1506-08772] | 25 |  |
| 105 µM |  | COc1ccc(C(N)=O)cc1NC(=O)c1csc(C2CCN(C(=O)c3c(F)cccc3Cl)CC2)n1 [Compound 1506-03039] | 4.2 |  |
|  | 60 | COc1ccc(C(N)=O)cc1NC(=O)c1csc(C2CCN(C(=O)Cc3ccccc3Cl)CC2)n1 [Compound 1506-03737, N-[5-(aminocarbonyl)-2-methoxyphenyl]-2-{1-[(2-chlorophenyl)acetyl]-4-piperidinyl}-1,3-thiazole-4-carboxamide] | 9 | Inhibition (%) (VEGF): 70% and 74% |
| 3.6 µM |  | COc1ccc(C(=O)N2CCC(c3nc(C(=O)Nc4cc(C(N)=O)ccc4OC)cs3)CC2)cc1 [Compound 1506-03560] | 16.4 |  |
| 11 µM |  | COc1ccc(C(N)=O)cc1NC(=O)c1csc(C2CCN(C(=O)Cc3ccc(SC)cc3)CC2)n1 [Compound 1506-08674] |  |  |
| 11 µM and 13.5 µM | 85 | COc1ccc(C(N)=O)cc1NC(=O)c1csc(C2CCN(C(=O)c3cc4ccccc4o3)CC2)n1 [Compound 1506-01284, N-[5-(aminocarbonyl)-2-methoxyphenyl]-2-[1-(1-benzofuran-2-ylcarbonyl)-4-piperidinyl]-1,3-thiazole-4-carboxamide] | 10.1 | IC50 [1, 5]: 12.6 µM |
| 6.6 µM | 93 | COc1ccc(C(N)=O)cc1NC(=O)c1csc(C2CCN(C(=O)c3ccccc3C(F)(F)F)CC2)n1 [Compound 1506-03388] | 23 | Inhibition (%) (VEGF): 87% and 90% |
| 4.5 µM | 77 | COc1ccc(C(N)=O)cc1NC(=O)c1csc(C2CCN(C(=O)COc3ccc(C)c(C)c3)CC2)n1 [Compound 1506-03914, N-[5-(aminocarbonyl)-2-methoxyphenyl]-2-{1-[(3,4-dimethylphenoxy)acetyl]-4-piperidinyl}-1,3-thiazole-4-carboxamide] | 17 | Inhibition (%) (VEGF): 70% and 81% |
| 4 µM | 88 | COc1ccc(C(N)=O)cc1NC(=O)c1csc(C2CCN(C(=O)C#Cc3ccccc3)CC2)n1 [Compound 1506-01461, N-[5-(aminocarbonyl)-2-methoxyphenyl]-2-[1-(3-phenyl-2-propynoyl)-4-piperidinyl]-1,3-thiazole-4-carboxamide] | 11 | Inhibition (%) (VEGF): 75% and 83% |

The next lines start with the compound.

| Structure (SMILES) | IC50 (rhVEGF165-biotin; Table 5, repeats listed) | inhibition at 50 µM (VEGF) [%] | IC50 [1, 2] [µM] | further results |
| --- | --- | --- | --- | --- |
| COCCOCCOCC(=O)N1CCC(c2nc(C(=O)Nc3cc(C(N)=O)ccc3OC)cs2)CC1 [Compound 1506-02159] | 128 µM |  |  |  |
| NC(=O)c1ccc(Cl)c(NC(=O)c2csc(C3CCN(C(=O)Cc4ccccc4Cl)CC3)n2)c1 [Compound 1633-00375] |  |  |  | IC50 (rhVEGF165-biotin; Table 6, **tested after re-synthesised, $solubility problems): 9 µM; IC50 (rhVEGF165-biotin; [3]): 5 µM; IC50 ([1]; Homo sapiens, HUVEC, Table 6, **tested after re-synthesised, $solubility problems): 17 µM; IC50 [1, 4]: 0.448 µM |
| COc1ccc(C(N)=O)cc1NC(=O)c1csc(C2CCN(C(=O)C3C(C)(C)C3(C)C)CC2)n1 [Compound 1506-01638] | 71 µM and > 100 µM | 89 | 5.4 | IC50 [1, 5]: 6 µM |
| COc1ccc(C(N)=O)cc1NC(=O)c1csc(C2CCN(C(=O)c3ccc(OC)c(OC)c3OC)CC2)n1 [Compound 1506-03211] | 132 µM |  |  |  |
| COc1ccc(C(N)=O)cc1NC(=O)c1csc(C2CCN(C(=O)c3nnc4cc(C)nn4c3C)CC2)n1 [Compound 1506-00581, N-[5-(aminocarbonyl)-2-methoxyphenyl]-2-{1-[(4,7-dimethylpyrazolo[5,1-c][1,2,4]triazin-3-yl)carbonyl]-4-piperidinyl}-1,3-thiazole-4-carboxamide] | 4.4 µM and 5 µM | 88 | 30 | IC50 [1, 5]: 31 µM |
| COc1ccc(C(N)=O)cc1NC(=O)c1csc(C2CCN(C(=O)N3CCN(c4ccccn4)CC3)CC2)n1 [Compound 1506-08218, N-[5-(aminocarbonyl)-2-methoxyphenyl]-2-(1-{[4-(2-pyridinyl)-1-piperazinyl]carbonyl}-4-piperidinyl)-1,3-thiazole-4-carboxamide] | 14.8 µM | 52 | 15.4 | Inhibition (%) (VEGF): 60% and 62% |
| C=CCCOc1ccc(C(=O)N2CCC(c3nc(C(=O)Nc4cc(C(N)=O)ccc4Cl)cs3)CC2)cc1 [Compound 1633-00884] |  |  |  | IC50 (rhVEGF165-biotin; [3]): 30 µM; IC50 [1, 4]: 0.649 µM |
| COc1ccc(C(N)=O)cc1NC(=O)c1csc(C2CCN(C(=S)Nc3ccc(N(C)C)cc3)CC2)n1 [Compound 1506-06813, N-[5-(aminocarbonyl)-2-methoxyphenyl]-2-[1-({[4-(dimethylamino)phenyl]amino}carbonothioyl)-4-piperidinyl]-1,3-thiazole-4-carboxamide] | 7.3 µM and 1.5 µM | 88 | 9.7 | IC50 [1, 5]: 8.2 µM |
| CC#CCOC(=O)N1CCC(c2nc(C(=O)Nc3cc(C(N)=O)ccc3OC)cs2)CC1 [Compound 1506-07095] | 173 µM |  |  |  |
| NC(=O)c1ccc(Cl)c(NC(=O)c2csc(C3CCN(C(=O)CCc4ccco4)CC3)n2)c1 [Compound 1633-00377] |  |  |  | IC50 (rhVEGF165-biotin; [3]): 5 µM; IC50 [1, 4]: 0.222 µM |
| C=CCSc1ncccc1C(=O)N1CCC(c2nc(C(=O)Nc3cc(C(N)=O)ccc3OC)cs2)CC1 [Compound 1506-02331, 2-(1-{[2-(allylsulfanyl)-3-pyridinyl]carbonyl}-4-piperidinyl)-N-[5-(aminocarbonyl)-2-methoxyphenyl]-1,3-thiazole-4-carboxamide] | 6.5 µM |  | 22.8 | Inhibition (%) (VEGF): 43% and 73% and 79% |
| COc1ccc(C(N)=O)cc1NC(=O)c1csc(C2CCN(C(=O)NCCC3=CCCCC3)CC2)n1 [Compound 1506-07554] | 142 µM |  | 35 |  |
| NC(=O)Cc1ccc(Cl)c(NC(=O)c2csc(C3CCN(C(=O)CCc4ccco4)CC3)n2)c1 [Compound 1633-01861] |  |  |  | IC50 (rhVEGF165-biotin; [3]): 13 µM; IC50 [1, 4]: 0.803 µM |
